Test results published in ChEMBL document CHEMBL3616421, “Discovery of novel isatin-dehydroepiandrosterone conjugates as potential anticancer agents” (Bioorg Med Chem Lett, 2015).
Calls of active or inactive are those of the source. No cut-off for these calls is given here.

Columns and labels:
Assay type in all cases: functional, cell-based
[1] = Cytotoxicity against 5-fluorouracil-resistant human Bel7402 cells assessed as growth inhibition after 72 hrs by MTT assay; conditions: Bel-7402, 72 h
[2] = test system: HepG2; test: Cytotoxicity against human HepG2 cells assessed as growth inhibition after 72 hrs by MTT assay; conditions: for IC50: HepG2, 72 h
[3] = (§1) Cytotoxicity against human HuH7 cells assessed as growth inhibition after 72 hrs by MTT assay; conditions: Huh-7, 72 h
[4] = (§2) Cytotoxicity against human A875 cells assessed as growth inhibition after 72 hrs by MTT assay; conditions: A875, 72 h
[5] = test system: Huh-7; test: as §1
[6] = test system: A875; test: as §2
[7] = test system: HepG2; test: Cytotoxicity against human HepG2 cells assessed as cell shrinkage at 10 ug/ml after 48 hrs by inverted microscopic analysis
[8] = test system: HepG2; test: Cytotoxicity against human HepG2 cells assessed as decrease in cell level at 10 ug/ml after 48 hrs by inverted microscopic analysis

Structure (SMILES): C[C@]12CC[C@H](O)CC1=CC[C@@H]1[C@@H]2CC[C@]2(C)/C(=N/Cc3ccccc3)CC[C@@H]12
- IC50 [1]: > 100 µM
- IC50 [2]: 32.6 µM
- IC50 [3]: > 100 µM
- IC50 [4]: 42.5 µM

Structure (SMILES): O=c1[nH]cc(F)c(=O)[nH]1 [FLUOROURACIL]
- IC50 [1]: > 700 µM
- growth inhibition (GI) [2]: Dose-dependent effect
- IC50 [2]: > 150 µM
- growth inhibition (GI) [5]: Dose-dependent effect
- IC50 [3]: > 100 µM
- IC50 [4]: > 150 µM
- growth inhibition (GI) [6]: Dose-dependent effect

Structure (SMILES): C[C@]12CC[C@H](O)CC1=CC[C@@H]1[C@@H]2CC[C@]2(C)/C(=N/c3ccccc3)CC[C@@H]12
- IC50 [1]: > 100 µM
- IC50 [2]: 63.5 µM
- IC50 [3]: > 100 µM
- IC50 [4]: 82.7 µM

Structure (SMILES): C[C@]12CC[C@H](O)CC1=CC[C@@H]1[C@@H]2CC[C@]2(C)/C(=N/Nc3ccccc3)CC[C@@H]12
- IC50 [1]: 29.9 µM
- IC50 [2]: 43.1 µM
- IC50 [3]: 55.4 µM
- IC50 [4]: > 100 µM

Structure (SMILES): C[C@]12CC[C@H](O)CC1=CC[C@@H]1[C@@H]2CC[C@]2(C)/C(=N/N=C3\C(=O)Nc4ccc(I)cc43)CC[C@@H]12
- IC50 [1]: 14.1 µM
- IC50 [2]: 22.5 µM
- IC50 [3]: > 70 µM
- IC50 [4]: 43.7 µM

Structure (SMILES): CC(C)c1ccc(/N=C2\CC[C@H]3[C@@H]4CC=C5C[C@@H](O)CC[C@]5(C)[C@H]4CC[C@]23C)cc1
- IC50 [1]: > 90 µM
- IC50 [2]: 44.3 µM
- IC50 [3]: > 90 µM
- IC50 [4]: 61.5 µM

Structure (SMILES): C[C@]12CC[C@H](O)CC1=CC[C@@H]1[C@@H]2CC[C@]2(C)/C(=N/N=C3\C(=O)Nc4ccc(Br)cc43)CC[C@@H]12
- IC50 [1]: 5.97 µM
- Activity [7]: Active
- Activity [8]: Active
- growth inhibition (GI) [2]: Dose-dependent effect
- IC50 [2]: 16.2 µM
- growth inhibition (GI) [5]: Dose-dependent effect
- IC50 [3]: 13.9 µM
- IC50 [4]: 14.8 µM
- growth inhibition (GI) [6]: Dose-dependent effect

Structure (SMILES): C[C@]12CC[C@H](O)CC1=CC[C@@H]1[C@@H]2CC[C@]2(C)/C(=N/N=C3\C(=O)Nc4ccc([N+](=O)[O-])cc43)CC[C@@H]12
- IC50 [1]: 10.1 µM
- IC50 [2]: 27.4 µM
- IC50 [3]: 30.6 µM
- IC50 [4]: 69 µM

Structure (SMILES): C[C@]12CC[C@H](O)CC1=CC[C@@H]1[C@@H]2CC[C@]2(C)/C(=N/N=C3\C(=O)Nc4ccccc43)CC[C@@H]12
- IC50 [1]: 21.8 µM
- Activity [7]: Active
- Activity [8]: Active
- growth inhibition (GI) [2]: Dose-dependent effect
- IC50 [2]: 13.3 µM
- growth inhibition (GI) [5]: Dose-dependent effect
- IC50 [3]: 28.2 µM
- IC50 [4]: 25.2 µM
- growth inhibition (GI) [6]: Dose-dependent effect

Structure (SMILES): C[C@]12CC[C@H](O)CC1=CC[C@@H]1[C@@H]2CC[C@]2(C)/C(=N/N=C3\C(=O)Nc4cc(F)ccc43)CC[C@@H]12
- IC50 [1]: 12.8 µM
- growth inhibition (GI) [2]: Dose-dependent effect
- IC50 [2]: 19.7 µM
- growth inhibition (GI) [5]: Dose-dependent effect
- IC50 [3]: 22.3 µM
- IC50 [4]: 29.6 µM
- growth inhibition (GI) [6]: Dose-dependent effect

Structure (SMILES): C[C@]12CC[C@H](O)CC1=CC[C@@H]1[C@@H]2CC[C@]2(C)/C(=N/Nc3ncccc3Cl)CC[C@@H]12
- IC50 [2]: > 90 µM
- IC50 [3]: > 90 µM
- IC50 [4]: > 90 µM
